According to patent US12194050B2, “Thiadiazine derivatives” (RICHTER GEDEON NYRT., priority 2018, dated 2025):

Biological target: human α7 nAchR (Homo sapiens (Human), UniProt P36544)
Assay: Human α7 nicotinic acetylcholine receptor [Ca2+]i assay (PAM, Ca2+ fluorometry)
Format: cell-based
Conditions: Flp-In 293 cells expressing human α7 nAchR and human RIC-3; in presence of saturating agonist (mostly PNU-282987, 1 μM)
Description: Biological Activity Human α7 Nicotinic Acetylcholine Receptor [Ca^2+]i Assay
Cells: Flp-In 293 cells stably expressing human α7 nAchR and human RIC-3 (α7 cells, generated in house.)
Materials: 96-well plates coated with PDL (Falcon), culture medium, assay buffer, DMSO, FLIPR Calcium 5 kit (Molecular Devices), probenecid, agonist and PAM test compounds.
Brief Description of the Method (Ca^2+ Fluorometry)
α7 cells stably expressing human α7 nAchR were cultured in the medium detailed above, and were split twice a week. For the fluorometric measurements of cytosolic Ca^2+ ion concentration ([Ca^2+]i) cells were seeded in 96-well microplates at a density of 60000 cells/well and maintained overnight in a tissue culture incubator at 37° C. under an atmosphere of 95% air/5% CO2. The plating medium was identical with the culture medium. 50 μl of the growth medium was aspirated with a cell washer (BioTek Elx405UCVWS). Then 50 μl/well Calcium 5 kit diluted 2-fold in assay buffer was added manually using an 8-channel pipette. After an incubation period (20 minutes, 37° C.) 50 μl/well assay buffer containing vehicle (DMSO, 4% added) or reference α7 PAMs (4×of the final concentration) were added manually and the cells were incubated for an additional 10 minutes at 37° C. Baseline and agonist-evoked [Ca2+]i-changes were monitored with FlexStation II (Molecular Devices, Sunnyvale, Calif.), a plate reader fluorometer with integrated 8-channel fluid addition capability. Fluorescence measurements were carried out at 37° C. The dye was excited at 485 nm, emission was sampled at 525 nm at 1.4-s intervals. Baseline was recorded for 20 seconds followed by agonist stimulation. 50 μl 4× concentrated agonist solution was added to the cells using the pipettor of FlexStation II and fluorescence was monitored for an additional 40 seconds. Final DMSO concentration was 1% for all treatments. To achieve this, a series of DMSO stock solutions were prepared from all test compounds. These stocks were stored under 0° C. and were further diluted in assay buffer to obtain the desired final concentration immediately before the measurement. Agonist and PAM concentration-response studies were conducted in the presence of saturating concentrations of PAMs (mostly PNU-120596, 5 μM) and agonists (mostly PNU-282987, 1 μM), respectively. Results were expressed as ΔF/F values using SoftMax Pro software (Molecular Devices), where F was the resting fluorescence preceding agonist application and ΔF was the increase in fluorescence at a given time (ΔF=maximum fluorescence intensity values after stimulation minus average fluorescence intensity values before stimulation). In all experiments, all treatments were measured in multiple wells in parallel, and the mean ΔF/F values were used for analysis.

Sequence of human α7 nAchR (P36544 23-502): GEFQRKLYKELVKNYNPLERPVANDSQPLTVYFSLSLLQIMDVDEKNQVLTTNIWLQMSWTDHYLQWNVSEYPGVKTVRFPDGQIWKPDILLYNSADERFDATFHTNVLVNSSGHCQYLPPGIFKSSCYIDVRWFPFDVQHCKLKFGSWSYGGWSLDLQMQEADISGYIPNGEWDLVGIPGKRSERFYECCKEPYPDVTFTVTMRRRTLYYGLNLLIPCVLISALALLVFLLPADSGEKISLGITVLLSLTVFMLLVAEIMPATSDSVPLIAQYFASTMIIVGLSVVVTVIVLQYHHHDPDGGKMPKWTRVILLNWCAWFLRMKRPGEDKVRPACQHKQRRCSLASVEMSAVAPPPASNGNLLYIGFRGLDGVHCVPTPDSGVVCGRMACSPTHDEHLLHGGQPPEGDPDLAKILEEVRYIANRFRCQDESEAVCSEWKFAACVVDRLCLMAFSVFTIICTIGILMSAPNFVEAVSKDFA

Structure (SMILES) | EC50 [nM]
COc1ccc(NC(=O)C2=CC(c3ccc(OC)c(OC)c3)=NS(=O)(=O)N2C(C)C)cc1 [Example 108] | 1300
CCN1C(C(=O)Nc2cccc(F)n2)=CC([C@H]2CC[C@H](C(F)(F)F)CC2)=NS1(=O)=O [Example 61] | 100
COc1ccc(C2=NS(=O)(=O)N(C)C(C(=O)Nc3ccc(C)cn3)=C2)cc1OC [Example 17] | 2800
CC[C@@H](C)N1C(C(=O)Nc2cccc(C(F)(F)F)n2)=CC(c2ccc(OC)c(OC)c2)=NS1(=O)=O [Example 81] | 120
CC(C)N1C(C(=O)Nc2cncc(F)n2)=CC([C@H]2CC[C@H](C(F)(F)F)CC2)=NS1(=O)=O [Example 138] | 140
C=CCN1C(C(=O)Nc2cccc(C(F)(F)F)n2)=CC(c2ccc(OC)c(OC)c2)=NS1(=O)=O [Example 107] | 55
CCN1C(C(=O)Nc2cccc(C)c2)=CC(c2ccc(OC)c(C(F)(F)F)c2)=NS1(=O)=O [Example 40] | 60
COc1ccc(C2=NS(=O)(=O)N(CC3CC3)C(C(=O)Nc3cccc(C)c3)=C2)cc1OC [Example 117] | 110
COc1ccc(C2=NS(=O)(=O)N(C)C(C(=O)Nc3cccc(C(F)(F)F)c3)=C2)cc1Cl [Example 26] | 360
CC(C)N1C(C(=O)Nc2cccc(C(F)(F)F)n2)=CC(C2CCC(F)(F)CC2)=NS1(=O)=O [Example 126] | 220
C=CCN1C(C(=O)Nc2cccc(C(F)(F)F)c2)=CC(c2ccc(OC)c(OC)c2)=NS1(=O)=O [Example 121] | 220
COc1ccc(C2=NS(=O)(=O)N(C)C(C(=O)Nc3cccc(C(C)=O)c3)=C2)cc1OC [Example 4] | 980
CCN1C(C(=O)Nc2cccc(C(F)(F)F)c2)=CC(c2ccc(OC)c(C)c2)=NS1(=O)=O [Example 44] | 360
CCCN1C(C(=O)Nc2cccc(C(F)(F)F)c2)=CC(c2cc(OC)c(OC)cc2F)=NS1(=O)=O [Example 96] | 330
CCN1C(C(=O)Nc2cccc(OC)c2)=CC(c2ccc(OC)c(C)c2)=NS1(=O)=O [Example 42] | 120
COc1ccc(C2=NS(=O)(=O)N(C)C(C(=O)Nc3cccc(C)c3)=C2)cc1Cl [Example 27] | 110
CCCN1C(C(=O)Nc2cccc(C(F)(F)F)c2)=CC(c2ccc(OC)c(Cl)c2)=NS1(=O)=O [Example 100] | 150
COc1ccc(C2=NS(=O)(=O)N(CC(F)(F)F)C(C(=O)Nc3cccc(C)c3)=C2)cc1OC [Example 119] | 380
COCCN1C(C(=O)Nc2cccc(F)n2)=CC(C2CCC(F)(F)CC2)=NS1(=O)=O [Example 131] | 1800
CCN1C(C(=O)Nc2cccc(C(F)(F)F)c2)=CC(C2CCC(F)(F)CC2)=NS1(=O)=O [Example 51] | 810

Structure (SMILES) | EC50 [nM]
COc1ccc(C2=NS(=O)(=O)N([C@H]3CCOC3)C(C(=O)Nc3cccc(C(F)(F)F)n3)=C2)cc1OC [Example 83] | 310
CCCn1ccc(NC(=O)C2=CC(c3ccc(OC)c(OC)c3)=NS(=O)(=O)N2C)n1 [Example 85, 5-(3,4-dimethoxyphenyl)-2-methyl-1,1-dioxo-N-(1-propyl-1H-pyrazol-3-yl)-2H-1λ^6,2,6-thiadiazine-3-carboxamide] | 2000
CCN1C(C(=O)Nc2cc(Cl)ccn2)=CC([C@H]2CC[C@H](C(F)(F)F)CC2)=NS1(=O)=O [Example 62] | 2800
CCCN1C(C(=O)Nc2cccc(Cl)c2)=CC(c2ccc(OC)c(OC)c2)=NS1(=O)=O [Example 114] | 380
CCN1C(C(=O)Nc2ccc(C(F)(F)F)cn2)=CC([C@H]2CC[C@H](C(F)(F)F)CC2)=NS1(=O)=O [Example 59] | 1300
COc1ccc(C2=NS(=O)(=O)N(C)C(C(=O)Nc3ccc(C(C)=O)cc3)=C2)cc1OC [Example 3] | 690
CCN1C(C(=O)Nc2cccc(F)n2)=CC([C@H]2CC3C[C@@H]3C2)=NS1(=O)=O (stereo partly shown) [Example 72] | 430
CCCN1C(C(=O)Nc2cccc(C)c2)=CC(c2ccc(OC)c(OC)c2)=NS1(=O)=O [Example 113] | 80
COc1ccc(NC(=O)C2=CC(c3ccc(OC)c(OC)c3)=NS(=O)(=O)N2C)cc1 [Example 11] | 440
CC[C@H](C)N1C(C(=O)Nc2cccc(C(F)(F)F)n2)=CC(c2ccc(OC)c(OC)c2)=NS1(=O)=O [Example 82] | 120
CCCN1C(C(=O)Nc2ccc(OC)cc2)=CC(c2ccc(OC)c(OC)c2)=NS1(=O)=O [Example 112] | 75
CCN1C(C(=O)Nc2ccc(F)c(C)n2)=CC([C@H]2CC[C@H](C(F)(F)F)CC2)=NS1(=O)=O [Example 77] | 1500
COc1ccc(C2=NS(=O)(=O)N(C)C(C(=O)Nc3ccc4c(c3)OCO4)=C2)cc1OC [Example 9] | 1600
CCN1C(C(=O)Nc2cccc(C(F)(F)F)c2)=CC([C@H]2CC[C@H](C(F)(F)F)CC2)=NS1(=O)=O [Example 50] | 1100
CCCN1C(C(=O)Nc2cccc(C(F)(F)F)n2)=CC(c2ccc(OC)c(C)c2)=NS1(=O)=O [Example 99] | 40
Cc1cccc(NC(=O)C2=CC(c3ccc4c(cnn4C)c3)=NS(=O)(=O)N2C)c1 [Example 22] | 370
CCN1C(C(=O)Nc2ccnc(F)n2)=CC([C@H]2CC[C@H](C(F)(F)F)CC2)=NS1(=O)=O [Example 79] | 320
COc1ccc(C2=NS(=O)(=O)N(C)C(C(=O)Nc3cc(C)ccn3)=C2)cc1OC [Example 18] | 2900
CCN1C(C(=O)Nc2ccc(C)cc2)=CC(c2ccc(OC)c(C(F)(F)F)c2)=NS1(=O)=O [Example 41] | 100
COCCN1C(C(=O)Nc2cccc(C(F)(F)F)n2)=CC([C@H]2CC[C@H](C(F)(F)F)CC2)=NS1(=O)=O [Example 128] | 310

Structure (SMILES) | EC50 [nM]
CCN1C(C(=O)Nc2cncc(F)n2)=CC([C@H]2CC[C@H](C(F)(F)F)CC2)=NS1(=O)=O [Example 63] | 190
CCCN1C(C(=O)Nc2cccc(C(F)(F)F)c2)=CC(c2ccc(OC)c(C)c2)=NS1(=O)=O [Example 98] | 100
CCCCn1cc(NC(=O)C2=CC(c3ccc(OC)c(OC)c3)=NS(=O)(=O)N2C)cn1 [Example 86, N-(1-butyl-1H-pyrazol-4-yl)-5-(3,4-dimethoxyphenyl)-2-methyl-1,1-dioxo-2H-1λ^6,2,6-thiadiazine-3-carboxamide] | 2900
CN1C(C(=O)Nc2cccc(C(F)(F)F)n2)=CC([C@H]2CC[C@H](C(F)(F)F)CC2)=NS1(=O)=O [Example 54] | 480
CCN1C(C(=O)Nc2cccc(F)n2)=CC(C2CCCCC2)=NS1(=O)=O [Example 74] | 1100
O=C(Nc1cccc(C(F)(F)F)n1)C1=CC(C2CCC(F)(F)CC2)=NS(=O)(=O)N1CC1CC1 [Example 134] | 80
CCN1C(C(=O)Nc2cncc(C(F)(F)F)n2)=CC(C2CCC(F)(F)CC2)=NS1(=O)=O [Example 69] | 1100
COc1ccc(C2=NS(=O)(=O)N(CC3CC3)C(C(=O)Nc3cccc(C(F)(F)F)c3)=C2)cc1C [Example 105] | 120
CCN1C(C(=O)Nc2cccc(C(F)(F)F)n2)=CC(C2CCC(F)(F)CC2)=NS1(=O)=O [Example 68] | 140
CCN1C(C(=O)Nc2cccc(C(F)(F)F)c2)=CC(c2ccc(OC)c(OC)c2)=NS1(=O)=O [Example 31] | 440
CC(C)N1C(C(=O)Nc2cccc(F)n2)=CC([C@H]2CC[C@H](C(F)(F)F)CC2)=NS1(=O)=O [Example 125] | 45
CCN1C(C(=O)Nc2cncc(C(F)(F)F)c2)=CC([C@H]2CC[C@H](C(F)(F)F)CC2)=NS1(=O)=O [Example 58] | 1200
CCN1C(C(=O)Nc2cccc(C(F)(F)F)n2)=CC([C@H]2CC[C@H](OC)CC2)=NS1(=O)=O [Example 65] | 1100
CCN1C(C(=O)Nc2ccc(OC)cc2)=CC(c2ccc(OC)c(C(F)(F)F)c2)=NS1(=O)=O [Example 38] | 45
O=C(Nc1cccc(C(F)(F)F)n1)C1=CC([C@H]2CC[C@H](C(F)(F)F)CC2)=NS(=O)(=O)N1CC1CC1 [Example 106] | 70
CN1C(C(=O)Nc2cccc(C(F)(F)F)n2)=CC(C2CCC(F)(F)CC2)=NS1(=O)=O [Example 55] | 470
O=C(Nc1cncc(F)n1)C1=CC([C@H]2CC[C@H](C(F)(F)F)CC2)=NS(=O)(=O)N1CC1CC1 [Example 139] | 150
CCN1C(C(=O)Nc2cccc(C(F)(F)F)n2)=CC(C2CCCCC2)=NS1(=O)=O [Example 73] | 390
